Data as given in ChEMBL document CHEMBL4130597 (ACS Med Chem Lett, 2017).

Tests used:
[1] = test system: Human immunodeficiency virus 1; assay: Antiviral activity against HIV1 infected in GFP expressing human MT4 cells assessed as inhibition of viral replication after 24 hrs in presence of 50% normal human serum; type: functional, organism-based; details: Human immunodeficiency virus 1, MT4, 24 h
[2] = biological target: Protease (Human immunodeficiency virus 1, UniProt Q9YQ12); assay: Inhibition of HIV1 protease expressed in Escherichia coli using Val-Ser-Gln-Asn-(beta-naphtyl)Ala-Pro-Ile-Val as substrate preincubated for 30 mins followed by substrate addition measured after 1 hr by mass spectrometric method
Chain of Protease (Q9YQ12 whole entry): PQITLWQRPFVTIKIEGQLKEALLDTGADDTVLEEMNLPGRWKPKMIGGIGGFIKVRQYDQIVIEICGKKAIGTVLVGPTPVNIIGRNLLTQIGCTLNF

[3] = test system: Human immunodeficiency virus 1; assay: Potency index, ratio of MK-8718 EC50 to test compound EC50 for HIV1 infected in GFP expressing human MT4 cells assessed as inhibition of viral replication; type: functional
[4] = biological target: Protease (Human immunodeficiency virus 1) (UniProt Q9YQ12); assay: Potency index, ratio of MK-8718 IC50 to test compound IC50 for HIV1 protease
Chain of Protease (Human immunodeficiency virus 1) (Q9YQ12 as listed by the source): as the sequence (Q9YQ12 whole entry) above

C[C@H]1CN(S(=O)(=O)c2ccccc2)[C@@H](CCc2c(F)cccc2NC(=O)CC(c2ccc(F)cc2)c2ccc(F)cc2)CN1
EC50 [1]: 700 nM

COC(=O)N[C@H](C(=O)N[C@@H](Cc1ccccc1)[C@@H](O)CN(Cc1ccc(-c2ccccn2)cc1)NC(=O)[C@@H](NC(=O)OC)C(C)(C)C)C(C)(C)C [ATAZANAVIR]
EC50 [1]: 12 nM

N[C@H](C(=O)Nc1cncc(F)c1CC[C@@H]1CN[C@H](COC(=O)NCC(F)(F)F)CO1)[C@@H](c1ccc(Cl)cc1)c1cc(F)cc(F)c1
IC50 [2]: 0.7 nM
EC50 [1]: 27 nM

O=C(CC(c1ccc(F)cc1)c1ccc(F)cc1)Nc1cccc(F)c1CC[C@@H]1CNCCN1S(=O)(=O)c1ccccc1
EC50 [1]: 1200 nM

C[C@@H]1CNC[C@H](CCc2c(F)cccc2NC(=O)CC(c2ccc(F)cc2)c2ccc(F)cc2)N1S(=O)(=O)c1ccccc1
EC50 [1]: 70 nM

O=C(CC(c1ccc(F)cc1)c1ccc(F)cc1)Nc1cccc(F)c1CC[C@H]1CN[C@@H]2CCCS(=O)(=O)N1C2
EC50 [1]: 21 nM

C[C@H]1CNC[C@H](CCc2c(F)cccc2NC(=O)CC(c2ccc(F)cc2)c2ccc(F)cc2)N1S(=O)(=O)c1ccccc1
EC50 [1]: 17 nM

O=C(CC(c1ccc(F)cc1)c1ccc(F)cc1)Nc1cccc(F)c1CC[C@H]1CNCCN1S(=O)(=O)c1ccccc1
EC50 [1]: 27 nM

N[C@H](C(=O)Nc1cncc(F)c1CC[C@H]1CN[C@@H]2CCCS(=O)(=O)N1C2)[C@@H](c1ccc(Cl)cc1)c1cc(F)cc(F)c1
Ratio EC50 [3]: 10
Ratio IC50 [4]: 60
IC50 [2]: 0.012 nM
EC50 [1]: 2.8 nM

CC(C)CN(C[C@@H](O)[C@H](Cc1ccccc1)NC(=O)O[C@H]1CO[C@H]2OCC[C@H]21)S(=O)(=O)c1ccc(N)cc1
EC50 [1]: 7 nM

C[C@@H]1CN(S(=O)(=O)c2ccccc2)[C@@H](CCc2c(F)cccc2NC(=O)CC(c2ccc(F)cc2)c2ccc(F)cc2)CN1
EC50 [1]: 520 nM
